Results as given in patent publication US20230414715A1, “TRAIL COMPOUNDS FOR REDUCING CANCER TREAMENT SIDE EFFECTS” (BROWN UNIVERSITY, priority 2022, published 2023).

Assays:
C57B1/6 mice = experiment: Radiation pneumonitis after whole-thorax x-ray irradiation, H&E of lung, wild-type mice; assay type: in vivo, mouse
Procedure: However, before embarking on the planned experiment, we decided to perform a preliminary, short-term treatment feasibility experiment to ensure some mouse survival after 20 Gy of thoracic irradiation (FIG. 1B). The preliminary experiment was performed with WT and DR5-null mice that were irradiated with 20 Gy, and this was followed by either weekly doses of TIC10/ONC201 (100 mg/kg for total of two doses) or twice a week doses of TLY012 (10 mg/kg for total of four doses) for 2 weeks.
(§1) Animal studies were carried out at Brown University facilities with approval from Brown University IACUC. C57B1/6 mice (Taconic), mice with bi-allelic loss of TRAIL Death Receptor-(DR5-/-) in a C57B1/6 background, and mice with bi-allelic loss of TRAIL (TRAIL -/-) in a C57B1/6 background were given a single whole-thorax x-ray (Philips RT250) irradiation dose of 20 Gy with shielding of other organs. 8-15-week-old male and female mice of each genotype were used. […] Treatment was continued for two weeks, where TLY012 was administered twice a week and ONC201 was administered once a week. For each genetic background, two mice received a control PO, two mice received TLY012 IP, and two mice received ONC201 PO. Mice were weighed twice a week, and 13 days post-irradiation all mice were euthanized. Organs were harvested from the mice and 600 μL of blood was collected via cardiac puncture for serum cytokine analysis. Organs were preserved in 10% formalin then embedded in paraffin and sectioned at a distance of 5 μm. […] TRAIL-/- female mice were also subjected to a survival study with a single whole-thorax radiation doses of 15 Gy or 18 Gy treated with the same regimen of TLY012 or control (n=2/radiation dose/treatment) (FIG. 3B). In order to determine the lethal dose of radiation for C57B1/6 mice, female C57B1/6 mice were treated with a single dose of whole-thorax irradiation of 25 Gy in a survival study where they were treated with either TLY012 or remained control (n=6/treatment) (FIG. 3C).

TRAIL-/- mice = experiment: Radiation pneumonitis after whole-thorax x-ray irradiation, H&E of lung, TRAIL-null mice; assay type: in vivo, mouse; settings: TRAIL-/- male or female mice, 20 Gy thoracic irradiation, two weeks treatment, FIG. 2A, B
Procedure: as §1, with “In order to determine the lethal dose of radiation for C57B1/6 mice, female C57B1/6 mice were treated with a single dose of whole-thorax irradiation of 25 Gy in a survival study where they were treated with either TLY012 or remained control (n=6/treatment) (FIG. 3C).” left out

serum cytokines = experiment: Serum cytokine analysis (Luminex) of irradiated mice; assay type: in vivo, mouse; settings: treated versus control
Procedure: as §1
All mouse serum samples were analyzed by a custom R&D systems Murine Premixed Multi- Analyte Kit (R&D Systems, Inc., Minneapolis, MN). The panel was run on a Luminex 200 Instrument (Luminex Corporation, Austin, TX) according to the manufacturer's instructions. Murine serum levels of Angiopoietin-2, BAFF/BLyS/TNFSF13B, CCL2/JE/MCP-1, CCL3/MIP-1 alpha, CCL4/MIP-1 beta, CCL5/RANTES, CCL7/MCP-3/MARC, CCL11/Eotaxin, CCL12/MCP-5, CCL20/MIP-3 alpha, CCL21/6Ckine, CCL22/MDC, Chitinase 3-like 1, CXCL1/GRO alpha/KC/CINC-1, CXCL10/IP-10/CRG-2, CXCL12/S DF- 1 alpha, Dkk-1, FGF basic/FGF2/bFGF, GDF-15, GM-CSF, Granzyme B, IFN-gamma, IGF-I/IGF-1, IL-1 alpha/IL-1F1, IL-1 beta/IL-1F2, IL-2, IL-3, IL-4, IL-6, IL-7, IL-10, IL-13, IL-16, IL-17/IL-17A, IL-27, IL-33 M-CSF, MMP-3, MMP-8, MMP-12, Prolactin, TWEAK/TNFSF12, VEGF, and VEGFR2/KDR/Flk-1 were measured. Analyte values were reported in picograms per milliliter (pg/mL). […] Latent TGF-β was activated in samples using 1 N HCl and samples were neutralized with 1.2 N NaOH/0.5 M HEPES. Samples were assayed immediately after neutralization.

[1] = system: lung tissue in irradiated C57B1/6 mice; experiment: Immunohistochemistry of irradiated lung tissue; assay type: in vivo, mouse
From the text: Paraffin embedded sections of tissue were deparaffinized in xylene and rehydrated through graded ethanol solutions to phosphate-buffered saline (PBS). Heat-induced antigen retrieval (in 0.01 M citrate buffer; pH 6.0), endogenous peroxidase blocking (3% H202), and blocking were done using a standard protocol. […] Slides were developed with diaminobenzidine substrate (Vector Laboratories SK-4100) and counterstained with hematoxylin (Richard Allen Scientific). Slides were scanned (Olympus VS200) and representative brightfield images were taken and analyzed with OlyVIA software.

duodenum, liver or heart = experiment: H&E of duodenum, liver and heart of irradiated, treated mice; settings: 20 Gy irradiated mice, 2 weeks treatment
Procedure: as §1, with “In order to determine the lethal dose of radiation for C57B1/6 mice, female C57B1/6 mice were treated with a single dose of whole-thorax irradiation of 25 Gy in a survival study where they were treated with either TLY012 or remained control (n=6/treatment) (FIG. 3C).” left out

[2] = system: e0771 orthotopic breast tumors in C57B1/6 mice; experiment: Orthotopic e0771 breast tumor model with 20 Gy whole-thorax irradiation
Procedure: C57B1/6 female mice (Taconic) were injected with 100,000 cells of murine breast cancer (e0771) in the right second mammary fat pad on day 0 of the experiment. […] Each group (n=3) also received a single whole-thorax x-ray irradiation dose of 20 Gy with shielding of other organs. One group (n=3) received no treatment and no radiation. The long axis and short axis of the tumors were measured using calipers and recorded twice a week. On day 18 all mice were euthanized at a humane endpoint, which was defined by 20% weight loss and/or a tumor volume of 2000 mm^3 (˜10% of body weight). Organs and tumors were harvested from the mice and 600 μL of blood was collected via cardiac puncture for serum cytokine analysis. Once tumors were extracted, they were weighed and measured to determine final volume and weight. Pulse oximeter readings were taken initially before radiation treatment and before sacrifice 9 days post-radiation (MouseSTAT Jr. Pulse Oximeter, Kent Scientific). When mice were under anesthesia the sensor of the MouseSTAT Jr. was placed on the hind right paw for 30 seconds. The highest and lowest values shown by the pulse oximeter during this time were recorded and then averaged together. The mean of all the averages per treatment group was then calculated.

[3] = irradiated rescued versus irradiated control lung tissues
[4] = normal or inflamed lung, treated versus irradiated control

## Cc1ccccc1CN1C(=O)C2=C(CCN(Cc3ccccc3)C2)N2CCN=C12 [ONC201, reference compound]
C57B1/6 mice; WT mice, 20 Gy thoracic irradiation, preliminary experiment, 2 weeks treatment, versus irradiated control, FIG. 1C
  protection from pneumonitis: qualitative evidence of protection from pneumonitis
C57B1/6 mice; irradiated C57B1/6 mice, FIG. 2
  rescue from radiation-induced pneumonitis: could rescue mice from radiation-induced pneumonitis
TRAIL-/- mice
  rescue from radiation pneumonitis: did not
Serum cytokines
  FGF basic serum level: increase
  IGF1 serum level: upregulated
[1]; [3]
  NFkB: no differences
  proliferation: no differences
[1]; [4]
  DNA double strand break marker gamma-H2AX: no difference
  T-cell infiltration (CD3-epsilon): no difference
[1]; rescued lungs versus irradiated control
  collagen in lungs: less collagen
duodenum, liver or heart
  toxicities in duodenum, liver or heart: No obvious toxicities
[2]; 20 Gy on day 9, treatment days 9, 12, 16, sacrifice day 18, FIG. 6B, C
  effect on anti-tumor efficacy of radiation (tumor weight and volume): no evidence that ONC201, TLY012 or their combination reduced efficacy of treatment
[2]; 9 days post-radiation, versus irradiated mice without further treatment, FIG. 6D
  oxygen saturation (pulse oximetry): partially rescued
[2]; tumor-bearing mice, 20 Gy
  rescue from radiation induced pneumonitis: more potent by TLY012 than with ONC201
